The subject of one assay is MB468 breast carcinoma. Description: in vitro amino acid uptake, MDA MB 468 cells. Format: cell-based, human. From the text:
(§1) The inventive compounds have been evaluated in vitro for tumor binding specificity (i.e. uptake cells) using a variety of tumor cell lines available in the art, along with reference compounds such as Me-AIB and BCH. Detailed description of these assays can be found in Martarello et al. (2002) Journal of Medicinal Chemistry, 45:2250-2259 and McConathy et al. (2003) Nuclear Medicine and Biology, 30:477-490. These, so called “amino acid uptake studies” are typically carried out with radiolabeled compounds in at least five phenotypically different human tumor cell lines (e.g. A549 lung carcinoma, MB468 breast carcinoma, DU145 prostate carcinoma, SKOV3 ovarian carcinoma, and U87 glial blastoma). These tumor cell lines can be grown either in vitro or in vivo with severe combined immunodeficiency (SCID) mice as a host. The fore-mentioned tumor cell lines are available at the Winship Cancer Institute of Emory University.
(§2) For the in vitro amino acid uptake studies, all cells can be grown to monolayer confluency in T-175 culture flasks [Corning, Corning, N.Y.] (approx. 1×10^8 cells/flask) in Dulbecco's Modified Eagle's Medium (DMEM) [Sigma, St. Louis, Mo.] in a humidified incubator (37° C., 5% CO2/95% air). Media are supplemented with 10% fetal calf serum [Hyclone, Logan, Utah], and antibiotics (10,000 U/ml penicillin and 10 mg/ml streptomycin) (Sigma, St. Louis, Mo.). For tissue culture passage, monolayer cells are detached by gentle trypsinization, resuspended in complete media, and split 1:10 into new T-flasks. […]
(§3) In the in vitro studies the uptake rate of each amino acid compound is measured in each tumor line, as well as the dominant transport mechanisms of each tumor cell line. After trypsinization, cells are resuspended in serum-free media, then counted on a hemocytometer, with viability assessed through Trypan blue staining. […] The vials are placed in a Cobra-II gamma counter (Packard, Meriden, Conn.), with the activity per cell number determined. […] Saline washes are performed as described above, and the filtered cells radioactivity determined on the gamma counter. […]

The subject of another assay is A549 lung carcinoma. Description: in vitro amino acid uptake, A549 cells. Type of assay: cell-based, human.
From the text: as §1, §2, §3

Consider `NC1(C(=O)O)CCC1[18F]` [Anti-R,S 2-[^18F]FACBC, (R,S) anti-1-amino-2-[^18F]fluorocyclobutyl-1-carboxylic acid], for which the “% Dose Uptake/0.5e6 Cells” value in the assay on MB468 breast carcinoma (MDA MB 468, No inhibitor) was 7.37 +/− 0.21 % Dose Uptake/0.5e6 Cells; with MB468 breast carcinoma (MDA MB 468, inhibitor BCH (10 mM)) it was 1.67 +/− 0.36 % Dose Uptake/0.5e6 Cells; in the assay with MB468 breast carcinoma (MDA MB 468, inhibitor MeAlB (10 mM)), 3.02 +/− 0.55 % Dose Uptake/0.5e6 Cells; in the assay with A549 lung carcinoma (A549, No inhibitor) it was 8.89 +/− 0.36 % Dose Uptake/0.5e6 Cells; with A549 lung carcinoma (A549, inhibitor BCH (10 mM)), 3.99 +/− 0.39 % Dose Uptake/0.5e6 Cells; in the assay on A549 lung carcinoma (A549, inhibitor MeAlB (10 mM)) it was 6.93 +/− 0.20 % Dose Uptake/0.5e6 Cells.

The record behind these values is patent US8834841B2, “Imaging agents” (priority 2005, dated 2014).
